Measurements as given in patent US8802663B2, “Pyrazole oxadiazole derivatives as S1P1 agonists” (Merck Serono SA, priority 2009, dated 2014).

Experiments:
S1P1 [1] = biological target: T1, S1P1 (Homo sapiens (Human), UniProt P21453); experiment: Receptor binding assay, [33P]sphingosine 1-phosphate, membranes from CHO cells expressing S1P1; conditions: CHO cell membranes, 25 pM [33P]sphingosine 1-phosphate
Description: (§1) Receptor binding assay: Membranes were prepared from CHO cells expressing S1P1 or S1P3 for use in ligand and […] binding studies. Cells were suspended in 50 mM TRIS, pH 7.4, 2 mM EDTA, 250 mM Sucrose (buffer A) and 1× Complete protease inhibitor cocktail (Roche), and disrupted at 4° C. by N2 decompression using a cell disruption bomb (Parr Instrument). Following centrifugation at 1000 RPM for 10 min at 4° C., the supernatant was suspended in buffer A and centrifuged again at 19000 RPM for 60 min at 4° C. The pellet was then suspended in 10 mM HEPES, pH 7.4, 1 mM EDTA, 250 mM Sucrose (Buffer B), and 1× Complete EDTA-free protease inhibitor cocktail and homogenized using a potter. Membranes were flash frozen in liquid N2 and stored at −80° C. [33P]sphingosine 1-phosphate (3000 Ci/mmol; American Radiolabeled Chemicals, Inc.) was added to test compounds in DMSO. Membranes and WGA SPA beads (GE Healthcare) were added to give a final volume of 100 μl in 96-well plates with assay concentrations of 25 pM or 10 pM [33P]sphingosine 1-phosphate (respectively for S1P1 or S1P3), 50 mM HEPES, pH 7.5, 5 mM MgCl2, 100 mM NaCl, 0.4% fatty acid-free BSA, 1-5 μg/well of proteins and 100 μg/well of WGA SPA beads. Binding was performed for 60 min at RT on a shaker and bound radioactivity was measured on a PerkinElmer 1450 MicroBeta counter. Specific binding was calculated by subtracting remaining radioactivity in the presence of 1000-fold excess of unlabeled SIP. Binding data were analyzed using the GraphPad Prism program.

S1P1 [2] = biological target: T1, S1P1; experiment: 35S-GTPγS binding, membranes from CHO cells expressing S1P1; format: biochemical; conditions: CHO cell membranes
S1P3 = S1P3 (Homo sapiens (Human), UniProt Q99500); experiment: 35S-GTPγS binding, membranes from CHO cells expressing S1P3; format: biochemical; conditions: CHO cell membranes
Description: as §1
Measurements of 35S-GTPγS Binding: Membranes (1 to 10 μg protein) prepared as described above, were incubated in 96-well Scintiplates (PerkinElmer) with test compounds diluted in DMSO, in 180 μl of 20 mM HEPES, pH 7.4, 10 mM MgCl2, 2 μg/well Saponin, 0.2% fatty acid free BSA (Assay buffer), 140 mM NaCl and 1.7 μM GDP. The assay was initiated with the addition of 20 μl of 1.5 nM [35S]-GTPγS (1100 Ci/mmol; GE Healthcare) in assay buffer. After 60 min incubation at 30° C. on a shaker, plates were centrifuged for 10 min at 2000 RPM. Supernatant was discarded and membrane bound radioactivity was measured on a PerkinElmer 1450 MicroBeta counter. Triplicate samples were averaged and expressed as % response relative to S1P activation in absence of compound (n=2).

Sequence of S1P3 (Q99500 whole entry, species assumed): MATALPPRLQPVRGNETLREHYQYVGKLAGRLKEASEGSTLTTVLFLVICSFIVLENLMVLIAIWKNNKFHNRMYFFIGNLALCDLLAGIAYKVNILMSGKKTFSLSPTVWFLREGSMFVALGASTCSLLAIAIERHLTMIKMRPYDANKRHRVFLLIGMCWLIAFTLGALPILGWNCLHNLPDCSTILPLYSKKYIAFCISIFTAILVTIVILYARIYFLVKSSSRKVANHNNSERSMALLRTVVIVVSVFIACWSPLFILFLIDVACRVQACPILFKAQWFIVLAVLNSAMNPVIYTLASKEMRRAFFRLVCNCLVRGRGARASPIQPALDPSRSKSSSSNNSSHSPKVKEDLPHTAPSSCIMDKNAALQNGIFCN
T1 sequence (P21453 whole entry, species assumed): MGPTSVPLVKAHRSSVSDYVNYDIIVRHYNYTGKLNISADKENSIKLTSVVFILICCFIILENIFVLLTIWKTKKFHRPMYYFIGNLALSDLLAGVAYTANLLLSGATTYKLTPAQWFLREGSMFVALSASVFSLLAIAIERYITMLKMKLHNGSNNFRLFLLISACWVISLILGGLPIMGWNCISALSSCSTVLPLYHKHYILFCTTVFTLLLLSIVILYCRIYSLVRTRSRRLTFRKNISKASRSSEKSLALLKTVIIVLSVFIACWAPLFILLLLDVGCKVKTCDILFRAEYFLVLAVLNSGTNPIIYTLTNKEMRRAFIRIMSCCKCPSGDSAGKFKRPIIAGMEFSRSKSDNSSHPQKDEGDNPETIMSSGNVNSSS

Compound	Ki (S1P1 [1]) [nM]	EC50 (S1P1 [2]) [nM]	EC50 (S1P3) [nM]
Fc1ccc(F)c(-c2noc(-c3cnn(C4CCCCC4)c3-c3ccncc3)n2)c1 [Example 23, 5-(1-cyclohexyl-5-(pyridin-4-yl)-1H-pyrazol-4-yl)-3-(2,5-difluorophenyl)-1,2,4-oxadiazole]	5	4	–
COCc1c(-c2nc(-c3cccc(C(=O)NCCC(=O)O)c3)no2)cnn1C1CCCCC1 [Example 147]	257	–	–
COCc1c(-c2nc(-c3ccc(COCCCC(=O)O)cc3)no2)cnn1C1CCCCC1 [Example 133, 4-(4-(5-(1-cyclohexyl-5-(methoxymethyl)-1H-pyrazol-4-yl)-1,2,4-oxadiazol-3-yl)benzyloxy)butanoic acid]	122	–	–
c1cc(-c2c(-c3nc(-c4ccc(Cc5nnn[nH]5)cc4)no3)cnn2C2CCCCC2)ccn1 [Example 154]	76	–	–
c1cc(-c2c(-c3nc(-c4ccc(Cn5ncnn5)cc4)no3)cnn2C2CCCCC2)ccn1 [Example 150]	3.4	–	–
CN(C)Cc1ccc(-c2noc(-c3cnn(C4CCCCC4)c3-c3ccncc3)n2)cc1 [Example 41, 1-{4-[5-(1-cyclohexyl-5-pyridin-4-yl-1H-pyrazol-4-yl)-1,2,4-oxadiazol-3-yl]phenyl}-N,N-dimethylmethanamine]	–	9	486
FC(F)(F)c1cccc(-c2noc(-c3cnn(C4CCCCC4)c3-c3ccncc3)n2)c1 [Example 28, 4-(1-cyclohexyl-4-{3-[3-(trifluoromethyl)phenyl]-1,2,4-oxadiazol-5-yl}-1H-pyrazol-5-yl)pyridine]	–	16	2660
Fc1ccc(F)c(-c2noc(-c3cnn(C4CCCCC4)c3C3CCOCC3)n2)c1 [Example 31, 5-[1-cyclohexyl-5-(tetrahydro-2H-pyran-4-yl)-1H-pyrazol-4-yl]-3-(2,5-difluorophenyl)-1,2,4-oxadiazole]	–	12	> 20000
COCc1c(-c2nc(-c3ccc(OCCCC(=O)O)cc3)no2)cnn1C1CCCCC1 [Example 134, 4-(4-(5-(1-cyclohexyl-5-(methoxymethyl)-1H-pyrazol-4-yl)-1,2,4-oxadiazol-3-yl)Phenoxy)butanoic acid]	128	–	–
c1cc(-c2c(-c3nc(-c4ccc(Cn5ccnc5)cc4)no3)cnn2C2CCCCC2)ccn1 [Example 136, 4-{2-Cyclohexyl-4-[3-(4-imidazol-1-ylmethyl-phenyl)-[1,2,4]oxadiazol-5-yl]-2H-pyrazol-3-yl}-pyridine]	–	–	58.3
COCc1c(-c2nc(-c3cccc(COCC(=O)O)c3)no2)cnn1C1CCCCC1 [Example 135, {3-[5-(1-Cyclohexyl-5-methoxymethyl-1H-pyrazol-4-yl)-[1,2,4]oxadiazol-3-yl]-benzyloxy}-acetic acid]	41.5	–	–
COCc1c(-c2nc(-c3cccc(OCCCC(=O)O)c3)no2)cnn1C1CCCCC1 [Example 144]	31	–	–
CC(C)Cn1ncc(-c2nc(-c3ccc4[nH]ncc4c3)no2)c1-c1ccncc1 [Example 40, 5-[5-(1-isobutyl-5-pyridin-4-yl-1H-pyrazol-4-yl)-1,2,4-oxadiazol-3-yl]-1H-indazole]	–	11	523
c1cnn(Cc2ccc(-c3noc(-c4cnn(C5CCCCC5)c4-c4ccncc4)n3)cc2)c1 [Example 149]	5.2	–	–
COCc1c(-c2nc(-c3ccc(C(=O)NCCC(=O)O)cc3)no2)cnn1C1CCCCC1 [Example 146]	9.9	–	–
Fc1ccc(F)c(-c2noc(-c3cnn(-c4ccccc4)c3-c3ccccc3)n2)c1 [Example 3, 3-(2,5-difluorophenyl)-5-(1,5-diphenyl-1H-pyrazol-4-yl)-1,2,4-oxadiazole]	8	77	–
COCc1c(-c2nc(-c3cccc(COCC(=O)O)c3)no2)cnn1C1CCCCC1 [Example 143]	41.5	–	–
COCc1c(-c2nc(-c3cccc(CO)c3)no2)cnn1C1CCCCC1 [Example 138]	25	–	–
CC(C)(C)Cn1ncc(-c2nc(-c3ccc(CN4CC(C(=O)O)C4)cc3)no2)c1-c1ccncc1 [Example 105, 1-(4-(5-(1-neopentyl-5-(pyridin-4-yl)-1H-pyrazol-4-yl)-1,2,4-oxadiazol-3-yl)benzyl)azetidine-3-carboxylic acid]	34	42	–

Compound	Ki (S1P1 [1]) [nM]	EC50 (S1P1 [2]) [nM]	EC50 (S1P3) [nM]
C[C@@H]1CCCC[C@@H]1n1ncc(-c2nc(-c3cc(F)ccc3F)no2)c1-c1ccccc1 [Example 47, 3-(2,5-difluorophenyl)-5-{1[(1S,2R)-2-methylcyclohexyl]-5-phenyl-1H-pyrazol-4-yl}-1,2,4-oxadiazole]	–	8	571
c1cc(-c2c(-c3nc(-c4ccc(CCn5cncn5)cc4)no3)cnn2C2CCCCC2)ccn1 [Example 151]	4.6	–	–
O=C(O)c1cnn(Cc2ccc(-c3noc(-c4cnn(C5CCCCC5)c4-c4ccncc4)n3)cc2)c1 [Example 153]	28	–	–
COCc1c(-c2nc(-c3ccc(/C=C/C(=O)O)cc3)no2)cnn1C1CCCCC1 [Example 98, (E)-3-(4-(5-(1-cyclohexyl-5-(methoxymethyl)-1H-pyrazol-4-yl)-1,2,4-oxadiazol-3-yl)phenyl)acrylic acid]	409	–	–
COCc1c(-c2nc(-c3cccc(CCC(=O)O)c3)no2)cnn1C1CCCCC1 [Example 145]	116	–	–
COCc1c(-c2nc(-c3ccc(CCC(=O)O)cc3)no2)cnn1C1CCCCC1 [Example 139]	393	–	–
CC(C)Cn1ncc(-c2nc(-c3cc(F)ccc3F)no2)c1-c1ccncc1 [Example 19, 4-{4-[3-(2,5-difluorophenyl)-1,2,4-oxadiazol-5-yl]-1-isobutyl-1H-pyrazol-5-yl}pyridine]	9	18	–
COCc1c(-c2nc(-c3cccc(COCCC(=O)O)c3)no2)cnn1C1CCCCC1 [Example 141]	180	–	–
CCOC(=O)Cn1ncc(-c2nc(-c3cc(F)ccc3F)no2)c1-c1ccccc1 [Example 13, ethyl {4-[3-(2,5-difluorophenyl)-1,2,4-oxadiazol-5-yl]-5-phenyl-1H-pyrazol-1-yl}acetate]	23	96	–
c1cnn(Cc2ccc(-c3noc(-c4cnn(C5CCCCC5)c4-c4ccncc4)n3)cc2)c1 [Example 137, 4-{2-Cyclohexyl-4-[3-(4-pyrazol-1-ylmethyl-phenyl)-[1,2,4]oxadiazol-5-yl]-2H-pyrazol-3-yl}-pyridine]	5.16	–	–
4-[4-[3-(2,5-difluorophenyl)-1,2,4-oxadiazol-5-yl]-1-(2-fluorophenyl)-1H-pyrazol-5-yl]pyridine [Example 8]	3	3	–
COCc1c(-c2nc(-c3cccc(/C=C/C(=O)O)c3)no2)cnn1C1CCCCC1 [Example 142]	191	–	–
N#CCc1ccc(-c2noc(-c3cnn(C4CCCCC4)c3-c3ccncc3)n2)cc1 [Example 152]	3.3	–	–
Fc1ccc(-n2ncc(-c3nc(-c4cc(F)ccc4F)no3)c2-c2ccccc2)cc1 [Example 6, 3-(2,5-difluorophenyl)-5-(1-(4-fluorophenyl)-5-phenyl-1H-pyrazol-4-yl)-1,2,4-oxadiazole]	13	235	–
c1cc(-c2c(-c3nc(-c4ccc(Cn5cnnn5)cc4)no3)cnn2C2CCCCC2)ccn1 [Example 155]	6	–	–
Cc1ccccc1-n1ncc(-c2nc(-c3cc(F)ccc3F)no2)c1-c1ccccc1 [Example 5, 3-(2,5-difluorophenyl)-5-(5-phenyl-1-o-tolyl-1H-pyrazol-4-yl)-1,2,4-oxadiazole]	13	255	–
CC(C)Cn1ncc(-c2nc(-c3cc(F)ccc3F)no2)c1-c1ccccc1 [Example 12, 3-(2,5-difluorophenyl)-5-(1-isobutyl-5-phenyl-1H-pyrazol-4-yl)-1,2,4-oxadiazole]	7	36	–
OCc1ccc(-c2noc(-c3cnn(C4CCCCC4)c3-c3ccncc3)n2)cc1 [Example 29, {4-[5(1-cyclohexyl-5-pyridin-4-yl-1H-pyrazol-4-yl)-1,2,4-oxadiazol-3-yl]phenyl}methanol]	–	24	–
Fc1ccc(F)c(-c2noc(-c3cnn(-c4ccccc4F)c3-c3ccccc3)n2)c1 [Example 2, 3-(2,5-difluorophenyl)-5-[1-(2-fluorophenyl)-5-phenyl-1H-pyrazol-4-yl]-1,2,4-oxadiazole]	–	24	–
